Results as given in patent EP4650362A1, “NEUROPROTECTIVE PSD-95 POLYPEPTIDE INHIBITOR AND USE THEREOF” (Beijing Tuo Jie Biopharmaceutical Co. Ltd., priority 2023, dated 2024).
Read-outs that look alike come from different tables or passages of the source. Non-standard residues stand in square brackets, D forms with d. Residues, ends and D or L forms follow the SMILES beside them. No end group written: not given here. Tle = CC(C)(C)[C@H](N)C(=O)O; Dab = NCC[C@H](N)C(=O)O; Aib = CC(C)(N)C(=O)O

Experiments:
human PSD95-PDZ3 = biological target: T1, human PSD95-PDZ3 (Homo sapiens, UniProt P78352); test: binding ELISA with Biotin-PDZ3
T1 construct: PDZ3 (309-401, Flag-His-Avitag-TEVsite tag); made in house
Excerpt: The three PDZ domains in the PSD95 protein are structurally similar. Binding to the PDZ1 and PDZ2 domains can effectively block PSD95-mediated neuroexcitotoxicity. However, the biological function of binding to the PDZ3 domain is unclear. Therefore, to avoid potential safety concerns, this test example assessed the selectivity of polypeptide compounds for the PDZ2 and PDZ3 domains, aiming to identify polypeptide compounds that specifically bind to the PDZ2 domain. The expression and purification of PSD95-PDZ3 protein were carried out with reference to the steps in 3.1.2. The amino acid sequence of PDZ3 protein: […] Site-specifically biotinylated Biotin-PDZ2 and Biotin-PDZ3 proteins were used for binding ELISA assays. […] After the blocking was complete, the blocking solution was discarded, and the plate was washed three times with PBST buffer. […] After the incubation was complete, the reaction solutions in the microplate were discarded, and the plate was washed three times with PBST. 100 μL of HRP-SA secondary antibody (diluted at 1:2000) was added to each well, and the plate was incubated at 37 °C for 1 h. After the plate was washed three times with PBST, 100 μL of TMB chromogenic substrate was added. […] The absorbance at 450 nm was measured using a SpectraMax M5 microplate reader, and the binding EC50 values of the test compounds to Biotin-PDZ2 or Biotin-PDZ3 were calculated using GraphPad Prism 9. […] The abilities of polypeptide compounds to bind to human PSD95-PDZ2 and human PSD95-PDZ3

human PSD95-PDZ2 = biological target: T2, human PSD95-PDZ2 (Homo sapiens, UniProt P78352); test: binding ELISA with Biotin-PDZ2
T2 construct: PDZ2 (155-249, the Flag-His-Avitag-TEVsite tag is italicized); made in house; host or cells: E. coli BL21-DE3 (PET vector)
Excerpt: The three PDZ domains in the PSD95 protein are structurally similar. Binding to the PDZ1 and PDZ2 domains can effectively block PSD95-mediated neuroexcitotoxicity. However, the biological function of binding to the PDZ3 domain is unclear. Therefore, to avoid potential safety concerns, this test example assessed the selectivity of polypeptide compounds for the PDZ2 and PDZ3 domains, aiming to identify polypeptide compounds that specifically bind to the PDZ2 domain. Site-specifically biotinylated Biotin-PDZ2 and Biotin-PDZ3 proteins were used for binding ELISA assays. […] After the blocking was complete, the blocking solution was discarded, and the plate was washed three times with PBST buffer. […] After the incubation was complete, the reaction solutions in the microplate were discarded, and the plate was washed three times with PBST. 100 µL of HRP-SA secondary antibody (diluted at 1:2000) was added to each well, and the plate was incubated at 37 °C for 1 h. After the plate was washed three times with PBST, 100 µL of TMB chromogenic substrate was added. […] The absorbance at 450 nm was measured using a SpectraMax M5 microplate reader, and the binding EC50 values of the test compounds to Biotin-PDZ2 or Biotin-PDZ3 were calculated using GraphPad Prism 9. […] The abilities of polypeptide compounds to bind to human PSD95-PDZ2 and human PSD95-PDZ3

[1] = plasma stability test, rat plasma; type: in vitro ADME
Description: Solution preparation: An appropriate amount of a test polypeptide compound was weighed out and dissolved in an appropriate amount of 1× PBS to form a 1 mM test solution. NA-1 and NoNO42 were used as positive drugs, propantheline bromide was used as a human plasma test control, and lovastatin was used as a rat plasma test control. Plasma stability test: 12.5 µL of the 1 mM test solution was added to a 495 µL pre-incubated plasma sample. […] For each incubation time, two parallel samples were set. Subsequently, 200 µL of stop solution was added to stop the incubation, and the mixtures were vortexed for 5 min. Then the mixtures were centrifuged at 10,000 rpm at 4 °C for 10 min to remove the protein in the sample, and 70 µL of the supernatant was transferred to a new 96-well plate (70 µL of water was added to each well beforehand) and well mixed. […] Sample pretreatment: […] LC-MS analysis: […] (2) Mass-spectrometric conditions: The mass spectrometry analysis used an electrospray ionization (ESI) source, a positive ion analysis mode, and a multi-reaction monitoring (MRM) scan mode. […] The plasma stability of the polypeptide compound

[2] = Rat plasma, 25 µM, 0min (standard 100%)
[3] = Rat plasma, 25 µM, 10min, read-out: Relative remaining compound content (%)
[4] = Rat plasma, 25 µM, 20min, read-out: Relative remaining compound content (%)
[5] = Rat plasma, 25 µM, 30min, read-out: Relative remaining compound content (%)
[6] = Rat plasma, 25 µM, 60min, read-out: Relative remaining compound content (%)

T2 sequence (P78352 155-249): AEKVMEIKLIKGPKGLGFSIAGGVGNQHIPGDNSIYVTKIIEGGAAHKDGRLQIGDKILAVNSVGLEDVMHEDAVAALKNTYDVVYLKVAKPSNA
T1 sequence (P78352 309-401): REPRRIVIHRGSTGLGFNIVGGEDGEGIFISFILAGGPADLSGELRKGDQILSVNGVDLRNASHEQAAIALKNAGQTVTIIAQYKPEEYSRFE

Compound | EC50 (human PSD95-PDZ3) [µM] | EC50 (human PSD95-PDZ2) [µM] | Relative remaining compound content (%) [1, 2] [%] | remaining at 10 min, 25 µM [1, 3] [%] | remaining at 20 min, 25 µM [1, 4] [%] | remaining at 0.5 h, 25 µM [1, 5] [%] | remaining at 1 h, 25 µM [1, 6] [%] | Relative remaining compound content (%) ([1]; Rat plasma, 25 µM, 120min) | further results
CC[C@H](C)[C@H](NC(=O)[C@H](CO)NC(=O)[C@H](CO)NC(=O)[C@H](CC(C)C)NC(=O)[C@@H](CCCCN)NC(=O)[C@H](CCCNC(=N)N)NC(=O)[C@H](CCCNC(=N)N)NC(=O)[C@@H](CCCNC(=N)N)NC(=O)[C@H](CCC(N)=O)NC(=O)[C@@H](CCCNC(=N)N)NC(=O)[C@H](CCCNC(=N)N)NC(=O)[C@H](CCCCN)NC(=O)[C@H](CCCCN)NC(=O)[C@@H](CCCNC(=N)N)NC(=O)CNC(=O)[C@@H](N)Cc1ccc(O)cc1)C(=O)N[C@@H](CCC(=O)O)C(=O)N[C@@H](CO)C(=O)N[C@@H](CC(=O)O)C(=O)N[C@H](C(=O)O)C(C)C [NoNO42, YGrKKRrQrRRkLSSIESDV, reference compound] (H-YG[dR]KKR[dR]Q[dR]RR[dK]LSSIESDV-OH) | > 1000 | 0.098 |  |  |  |  |  |  | remaining at 10 min, 25 µM ([1]; rat, plasma): 98.4%; remaining at 20 min, 25 µM ([1]; rat, plasma): 93.6%; remaining at 0.5 h, 25 µM ([1]; rat, plasma): 93.6%; remaining at 1 h, 25 µM ([1]; rat, plasma): 90.8%; remaining at 2 h, 25 µM ([1]; rat, plasma): 95%
CC(C)[C@H](NC(=O)[C@H](CC(=O)O)NC(=O)[C@@H](NC(=O)[C@@H](NC(=O)[C@@H](NC(=O)[C@@H](NC(=O)[C@H](CCN)NC(=O)C(C)(C)NC(=O)CNC(=O)[C@@H](CCCNC(=N)N)NC(=O)[C@@H](CCCNC(=N)N)NC(=O)[C@@H](CCCNC(=N)N)NC(=O)[C@@H](CCC(N)=O)NC(=O)[C@@H](CCCNC(=N)N)NC(=O)[C@@H](CCCNC(=N)N)NC(=O)[C@@H](CCCCN)NC(=O)[C@@H](CCCCN)NC(=O)[C@@H](CCCNC(=N)N)NC(=O)CNC(=O)[C@H](N)Cc1ccc(O)cc1)[C@@H](C)O)C(C)(C)C)C(C)(C)C)[C@@H](C)O)C(=O)O [Polypeptide compound 14, y-G-r-k-k-r-r-q-r-r-r-G-Aib-Dab-T-Tle-Tle-T-D-V] (H-[dY]G[dR][dK][dK][dR][dR][dQ][dR][dR][dR]G[Aib][Dab]T[Tle][Tle]TDV-OH) |  |  | 100.0 | 105 | 117 | 107 | 109 |  | EC50 (human PSD95-PDZ3; plate coated with 2 µM test compound, Biotin-PDZ3 titrated, read-out: EC50 (PDZ3)): > 1000 µM; EC50 (human PSD95-PDZ2; plate coated with 2 µM test compound, Biotin-PDZ2 titrated, read-out: EC50 (PDZ2)): 0.076 µM; remaining at 2 h, 25 µM ([1]; Rat plasma, 25 µM, 120min, read-out: Relative remaining compound content (%)): 104%
CC(C)[C@H](NC(=O)[C@H](CC(=O)O)NC(=O)[C@@H](NC(=O)[C@@H](NC(=O)[C@@H](NC(=O)[C@@H](NC(=O)[C@H](CCN)NC(=O)C(C)(C)NC(=O)CNC(=O)[C@@H](CCCNC(=N)N)NC(=O)[C@H](CCCNC(=N)N)NC(=O)[C@H](CCCNC(=N)N)NC(=O)[C@H](CCC(N)=O)NC(=O)[C@@H](CCCNC(=N)N)NC(=O)[C@H](CCCNC(=N)N)NC(=O)[C@H](CCCCN)NC(=O)[C@H](CCCCN)NC(=O)[C@H](N)CCCNC(=N)N)[C@@H](C)O)C(C)(C)C)C(C)(C)C)[C@@H](C)O)C(=O)O [Polypeptide compound 22, r-K-K-R-r-Q-R-R-r-G-Aib-Dab-T-Tle-Tle-T-D-V] (H-[dR]KKR[dR]QRR[dR]G[Aib][Dab]T[Tle][Tle]TDV-OH) |  |  | 100.0 | 116 | 105 | 110 | 102 | 124.8 | 
YGRKKRRQRRRKLSSIESDV [NA-1, YGRKKRRQR RRKLSSIESDV, reference compound] | > 1000 | 0.083 | 100.0 |  |  |  |  | 42.1 | Relative remaining compound content (%) ([1]; Rat plasma, 25 µM, 10min): 103.7%; Relative remaining compound content (%) ([1]; Rat plasma, 25 µM, 20min): 77.5%; Relative remaining compound content (%) ([1]; Rat plasma, 25 µM, 30min): 69.5%; Relative remaining compound content (%) ([1]; Rat plasma, 25 µM, 60min): 54.4%; remaining at 10 min, 25 µM ([1]; rat, plasma, Rat plasma, 25 µM, 10min, read-out: Relative remaining compound content (%)): 94.1%; remaining at 20 min, 25 µM ([1]; rat, plasma, Rat plasma, 25 µM, 20min, read-out: Relative remaining compound content (%)): 83%; remaining at 0.5 h, 25 µM ([1]; rat, plasma, Rat plasma, 25 µM, 30min, read-out: Relative remaining compound content (%)): 73.3%; remaining at 1 h, 25 µM ([1]; rat, plasma, Rat plasma, 25 µM, 60min, read-out: Relative remaining compound content (%)): 57%; remaining at 2 h, 25 µM ([1]; rat, plasma, Rat plasma, 25 µM, 120min, read-out: Relative remaining compound content (%)): 28.4%
